Literature values in patent publication US20060110454A1 (priority 2004, published 2006).
Counter-ions that a name gives are not always drawn.

soluble in ethanol (ethanol): about 0.5%
soluble in methanol (methanol): about 8%
soluble in water (water): more than 20%
Structure (SMILES): CCCN[C@H]1CCc2nc(N)sc2C1 [Pramipexole dihydrochloride, (S)-2-amino-4,5,6,7-tetrahydro-6-(propylamino)benzothiazole dihydrochloride monohydrate]
